Measurements from patent publication US20040091578A1 (priority 2001, published 2004).
Read-outs that look alike come from different tables or passages of the source.

How the values were obtained:
[1] = system: dogs sensitized to cow's milk; experiment: Skin tests, ED50 and relative allergenicity (Example 44); assay type: in vivo, dog; conditions: all dogs tested
Description: Reduction and Blocking of Protein Disutfide Bond. […] Following gel filtration with a Sephadex G-25 column (Amersham Pharmacia) to remove reductants, the reduced protein (less than 0.25 mg/ml) was incubated either without addition or with 10 mM oxidized glutathione (GSSG) or 10 mM cystamine for 3 days on ice. The mixtures were then subjected to a second gel filtration on a Sephadex G-25 column to remove excess GSSG and cystamine. If necessary, the resultant preparations were concentrated by ultrafiltration with Centricon YM-3 filter (Millipore). Heat treatment of NTS-reduced BLG was carried out for 1 hour at 55° C. after reduction at 4° C. overnight. Raw cow's milk (47 mg protein/ml) was reduced with 50 mM DTT and blocked with cystamine and GSSG as described above for BLG. Heated milk was prepared by incubation for 1 hour at 55° C. and gel filtration with A Sephadex G-25 column.
Skin Tests. The background of the dog colony, immunization schedule and procedure for skin testing have been previously described in Examples 36-39 and also in del Val et al., 1999, Buchanan et al., 1997, Ermel et al., 1997, Frick and Brooks, 1983, herein incorporated by reference. Here, 3 litters of the 7th generation designated 7FA, 7FB and 7FC were immunized with commercial preparations (Bayer) of cow's milk, soybean and other food extracts (wheat or barley and walnut, Brazil nut and peanut) and also ragweed pollen. BLG samples for testing were prepared in half-log dilutions with PBS; 100 μL of each dilution was injected intradermally on the dog's abdomen.
Estimation of Relative Allergenicity. Wheal area of each spot was plotted by the Lineweaver-Burk double-reciprocal plot to obtain the maximum wheal area. The log of the dose of BLG that effects a half-maximum of wheal area with the control sample, termed Effective Dose 50 (ED50), was calculated and used for statistical analysis. For simplification, ratio of the reciprocal of ED50 to that of the control sample is presented below as relative allergenicity.

[2] = system: Glutenin 30-40 kDa; experiment: Reductant specificity of glutenins, mBBr/SDS-PAGE; assay type: biochemical, Triticum durum
Description: (§1) For isolation of insoluble storage proteins, semolina (0.2 g) was extracted sequentially with 1 ml of the following solutions for the indicated times at 25° C.: (1) 50 mM Tris-HCl, pH 7.5 (20 min); (2) 70% ethanol (2 hr); and (3) 0.1 M acetic acid (2 hr). During extraction, samples were placed on an electrical rotator and, in addition, occasionally agitated with a vortex mixer. After extraction with each solvent, samples were centrifuged (12,000 rpm for 5 min) in an Eppendorf microfuge and, supernatant fractions were saved for analysis. In between each extraction, pellets were washed with 1 ml of water, collected by centrifugation as before and the supernatant wash fractions were discarded. By convention, the fractions are designated: (1) albumin/globulin; (2) gliadin; and (3) glutenin.
(§2) Reactions were carried out in 100 mM Tris-HCl buffer, pH 7.9. As indicated, 0.7 μg NTR and 1 μg thioredoxin (both from E. coli unless specified otherwise) were added to 70 μl of this buffer containing 1 mM NADPH and 10 μg of target protein.
(§3) SDS-polyacrylamide electrophoresis of the mBBr-derivatized samples was performed in 15% gels at pH 8.5 as described by Laemmli, U. K. (1970), Nature 227:680-685. Gels of 1.5 mm thickness were developed for 16 hr. at a constant current of 9 mA.
(§4) The Polaroid negatives of fluorescent gels and prints of wet protein stained gels were scanned with a laser densitometer (Pharmacia-LKB UltroScan XL). Fluorescence was quantified by evaluating peak areas after integration with GelScan XL software.

[3] = system: Glutenin 60-110 kDa; experiment: Reductant specificity of glutenins, mBBr/SDS-PAGE; assay type: biochemical, Triticum durum
Description: as §1, §2, §3, §4

[4] = system: allergic dogs; experiment: Skin tests with giant ragweed pollen extract; assay type: in vivo, dog
Description: Reduction of pollen proteins by the thioredoxin system. Giant ragweed allergen extract, purchased from Bayer Inc., was analyzed for protein by the Bradford assay using bovine γ-globulin as standard (Wong, J. H. et al. (1995) “Thioredoxin and seed proteins” Methods Enzymol 252:228-240). […] The extent of reduction was determined by the SDS-PAGE/monobromobimane procedure as previously described above and also as described by Wong et al. (Ibid.). Gels were visualized under U.V.
Skin tests. Procedures to measure the type I hypersensitivity reaction by skin tests in allergic […] were substantially the same to those previously described above (see, Examples 36, 37 and 39). In brief, Evans blue dye 0.5% (0.2 ml/kg) was injected intravenously 5 minutes prior to skin testing. Aliquots of 0.1 ml of pollen allergen extract were injected intradermally on ventral abdominal skin in half-log dilutions. Skin tests were read blindly by the same experienced blinded observer scoring two perpendicular diameters for each blue spot. Appropriate negative controls (diluted in PBS) were included for each animal tested.
Data analysis. The statistical significance of the skin test results showing the thioxedoxin-linked mitigation of pollen allergens was determined by paired one-tailed, t-tests. […] The t-tests were completed for each dilution series (0.07 to 219 ng allergen) at 0.05 level of significance on all sensitive dogs (df≅8).

[5] = system: trypsin; experiment: Trypsin proteolysis of purified milk allergens; assay type: biochemical; conditions: 10 μg NTS reduced protein, 2 μg trypsin
Description: The analysis of the reduction was done using the mBBr/SDS-PAGE techniques. Further in this study, when 10 μg of an NTS reduced purified milk allergen protein, β-lactoglobulin (Sigma Chemical Co.), was treated with 2 μg of trypsin, proteolysis was 100% as compared with only 50% for the identically trypsin treated oxidized β-lactoglobulin. […] However, 10 μg of purified α-lactalbumin reduced by the NTS was proteolyzed 80% by trypsin. Also 10 μg of α-lactalbumin reduced by 0.8 μg of thioredoxin and 0.5 mM DTT was 100% proteolyzed by 2 μg of trypsin.

## NTS/CYM: BLG treated with cystamine following NTS-reduction
[1]
  times less allergenic than native (control) BLG, from ED50: about 2.5 times

## N[C@@H](CCC(=O)N[C@@H](CS)C(=O)NCC(=O)O)C(=O)O [Glutathione, glutathione, reference compound]
[2]
  Glutenin, % Relative Reduction, 30-40 kDa: 29%
[3]
  Glutenin, % Relative Reduction, 60-110 kDa: 31%

## NTS-reduced & heated: BLG heated for 1 hour at 55° C. following NTS-reduction at 4° C. overnight
[1]
  times less allergenic than native (control) BLG, from ED50: about 5 times

## Thioredoxin: E. coli thioredoxin reduced by NADPH and NTR
[2]; thioredoxin (NTS) = 100
  Glutenin, % Relative Reduction, 30-40 kDa: 100%
[3]; thioredoxin (NTS) = 100
  Glutenin, % Relative Reduction, 60-110 kDa: 100%
[4]; Allergen 0.07 ng
  Mitigation of skin test response: Not Signiticant
[4]; Allergen 0.22 ng
  Mitigation of skin test response: Not Significant
[4]; Allergen 0.66 ng
  Mitigation of skin test response: Significant
[4]; Allergen 2.2 ng
  Mitigation of skin test response: Significant
[4]; Allergen 6.6 ng
  Mitigation of skin test response: Significant
[4]; Allergen 22 ng
  Mitigation of skin test response: Significant
[4]; Allergen 66 ng
  Mitigation of skin test response: Significant
[4]; Allergen 219 ng, paired one tail t test, P 0.05
  Mitigation of skin test response: Not Significant

## NTS/GSSG: BLG treated with GSSG following NTS-reduction
[1]
  times less allergenic than native (control) BLG, from ED50: about 2.5 times

B1: α-lactalbumin: purified milk allergen (Sigma) (protein, UniProt P00711 20-142, looked up)
Alpha-lactalbumin: EQLTKCEVFRELKDLKGYGGVSLPEWVCTTFHTSGYDTQAIVQNNDSTEYGLFQINNKIWCKDDQNPHSSNICNISCDKFLDDDLTDDIMCVKKILDKVGINYWLAHKALCSEKLDQWLCEKL
[5]
  proteolysis by trypsin: 80%

B2: Glutaredoxin: E. coli glutaredoxin with NADPH, reduced glutathione and glutathione reductase (NGS) (protein, UniProt P68688 1-85, looked up)
Glutaredoxin 1: MQTVIFGRSGCPYCVRAKDLAEKLSNERDDFQYQYVDIRAEGITKEDLQQKAGKPVETVPQIFVDQQHIGGYTDFAAWVKENLDA
modifications: with NADPH, glutathione, glutathione reductase
[2]; thioredoxin (NTS) = 100
  Glutenin, % Relative Reduction, 30-40 kDa: 40%
[3]; thioredoxin (NTS) = 100
  Glutenin, % Relative Reduction, 60-110 kDa: 50%
